{"source": "patent US10399968B2", "about": "“Hydroxyalkyl thiadiazole derivatives” (Daiichi Sankyo Company, Limited, priority 2015, dated 2019)", "key": {"[1]": {"test": "Solubility in water (JP1 / JP2 fluids)", "format": "physicochemical", "conditions": "thermodynamic from solid", "how_it_was_run": "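DMSO stock (10 mmol/L) dried down, residue shaken 30 min in JP1 or JP2 fluid after 1 min sonication, then held 1 h dark at room temperature. Filtrate diluted and quantified by UPLC against 100 and 5 μmol/L standards.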"}, "[2]": {"molecular_target": "Clostridium difficile DNA gyrase (Clostridioides difficile, UniProt Q18C89)", "sequence (Q18C90 entry or part of it)": "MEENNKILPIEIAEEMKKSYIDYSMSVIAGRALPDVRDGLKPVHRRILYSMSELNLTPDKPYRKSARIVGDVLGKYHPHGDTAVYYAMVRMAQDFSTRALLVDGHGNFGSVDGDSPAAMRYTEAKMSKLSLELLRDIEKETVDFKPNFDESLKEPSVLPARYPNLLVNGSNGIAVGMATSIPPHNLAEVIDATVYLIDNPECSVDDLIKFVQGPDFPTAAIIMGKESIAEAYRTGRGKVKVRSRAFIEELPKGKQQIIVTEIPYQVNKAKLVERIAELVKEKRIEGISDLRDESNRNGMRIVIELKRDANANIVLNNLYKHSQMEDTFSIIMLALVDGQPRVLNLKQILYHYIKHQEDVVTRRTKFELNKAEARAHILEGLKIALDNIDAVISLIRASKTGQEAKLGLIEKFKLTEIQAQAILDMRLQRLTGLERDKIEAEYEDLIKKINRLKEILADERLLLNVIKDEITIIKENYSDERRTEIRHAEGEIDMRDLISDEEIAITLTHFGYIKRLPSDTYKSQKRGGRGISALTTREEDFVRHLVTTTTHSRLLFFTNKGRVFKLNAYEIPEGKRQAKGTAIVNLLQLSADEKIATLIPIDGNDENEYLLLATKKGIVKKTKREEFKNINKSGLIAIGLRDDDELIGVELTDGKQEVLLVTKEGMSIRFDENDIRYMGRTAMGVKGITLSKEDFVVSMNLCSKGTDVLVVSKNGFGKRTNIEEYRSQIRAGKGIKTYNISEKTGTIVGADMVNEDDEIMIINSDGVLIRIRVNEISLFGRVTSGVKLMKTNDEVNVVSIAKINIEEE", "sequence (Q18C89 entry or part of it)": "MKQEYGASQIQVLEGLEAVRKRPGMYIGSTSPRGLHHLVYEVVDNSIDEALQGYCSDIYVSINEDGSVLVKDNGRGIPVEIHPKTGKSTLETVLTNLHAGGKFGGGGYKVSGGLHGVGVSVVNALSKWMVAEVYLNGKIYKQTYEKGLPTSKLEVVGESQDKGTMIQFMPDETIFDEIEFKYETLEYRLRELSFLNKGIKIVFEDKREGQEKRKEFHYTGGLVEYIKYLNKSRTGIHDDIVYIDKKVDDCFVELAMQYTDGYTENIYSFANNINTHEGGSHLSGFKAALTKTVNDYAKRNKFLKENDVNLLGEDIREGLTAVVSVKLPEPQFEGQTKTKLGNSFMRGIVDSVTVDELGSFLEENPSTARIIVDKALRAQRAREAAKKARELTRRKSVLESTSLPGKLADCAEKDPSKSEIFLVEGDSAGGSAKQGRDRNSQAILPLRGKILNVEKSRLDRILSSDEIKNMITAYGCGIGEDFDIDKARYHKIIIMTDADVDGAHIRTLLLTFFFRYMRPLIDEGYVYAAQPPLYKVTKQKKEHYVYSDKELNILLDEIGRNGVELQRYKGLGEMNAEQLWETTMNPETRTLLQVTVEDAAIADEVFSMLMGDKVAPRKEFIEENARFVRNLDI", "test": "DNA supercoiling inhibition assay", "format": "biochemical", "conditions": "supercoiling of relaxed pBR322 DNA, 60 minutes at 37° C.", "how_it_was_run": "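Relaxed pBR322 (400 ng) supercoiled by C. difficile gyrase for 60 min at 37 °C in Tris-HCl pH 7.5 with 6 mM MgCl2, 70 mM KCl, compounds added from 20% DMSO. Products resolved on 1.0% agarose, EtBr-stained; supercoiled band intensity quantified and IC50 fitted.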"}, "[3]": {"test": "Oral bioavailability (BA) in monkeys", "format": "in vivo, Macaca fascicularis", "conditions": "male, cynomolgus monkey, blood, 1 mg/kg oral vs jugular vein", "protocol": "To male Macaca fascicularis (3 or 4 year-old) fasted overnight, a solution of the test compound Captisol® was administered into the jugular vein (3 animals) and a solution of Lutrol® F68 was orally administered (3 animals). The dose of both test compounds was 1 mg/kg body weight of the monkey. The amount of Captisol® used was 0.18 mg/kg body weight of the monkey. The amount of Lutrol® F68 used was 0.02 mg/kg body weight of the monkey. The BA value was calculated by the formula below using the integration value (AUCiv(0-∞)) of the blood concentration extrapolated from time 0 to infinity after administration of both test compounds. BA(%)=[[(AUCpo(0-∞))/(dose po)]/[(AUCiv(0-∞))/(dose iv)]]×100 The greater a BA value of the compound shown, the higher the oral bioavailability is."}, "[4]": {"system": "Clostridium difficile ATCC 43255", "test": "Susceptibility of Clostridium difficile, agar dilution MIC", "format": "cell-based", "conditions": "Clostridioides difficile, ATCC43255, anaerobic", "how_it_was_run": "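Agar dilution per CLSI M11-A8 on supplemented Brucella agar containing compound dilutions. Inoculum from 0.5 McFarland suspension, 1-2 μL spots; anaerobic incubation at 36° C for 42 to 48 hours. MIC read by eye as the concentration giving marked growth reduction versus compound-free anaerobic control plates.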"}, "[5]": {"system": "Clostridium difficile 2009155, a NAP1/027 strain", "test": "Hamster CDI model", "format": "in vivo", "conditions": "0.3 mg/kg/day by oral route, 5 days", "protocol": "The in vivo efficacy of test compounds were evaluated in a hamster CDI model caused by Clostridium difficile 2009155, a NAP1/027 strain. Syrine hamsters (6-8-weeks old) were primed with a single subcutaneous injection of clindamycin (30 mg/kg) 1-5 days prior to infection. Hamsters were infected by oral gavage with 1 ml of spore suspension ([…]) prepared in PBS. The drug was administered to the hamsters 6 hours post infection by oral or subcutaneous route at an interval of 24 hours for 5 days. The death and survival of the non-treated group and the drug-administered group were recorded once daily for 35 days."}, "S. aureus ATCC 29213": {"system": "S. aureus ATCC 29213", "test": "Susceptibility of bacteria, broth microdilution MIC", "format": "cell-based", "conditions": "Staphylococcus aureus, ATCC29213", "how_it_was_run": "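CLSI M7-A7 broth microdilution with 2-fold serial compound dilutions; inoculum from 0.5 McFarland suspension diluted 10-fold, 4 μL per well. Incubated 35 °C for about 20 h; MIC is the lowest concentration preventing visible growth.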"}, "[6]": {"conditions": "Japanese Pharmacopeia First Fluid (JP1), pH 1.2, simulated gastric fluid, read-out: Solubility JP1"}, "[7]": {"conditions": "Japanese Pharmacopeia Second Fluid (JP2), pH 6.8, aqueous buffer, read-out: Solubility JP2"}}, "note": "Like-named read-outs stand apart in the source and are kept apart here.", "data": [{"smiles": "CCc1[nH]c(C(=O)N[C@@H]2CCN(c3nnc([C@H](C)O)s3)C[C@@H]2OC)nc1Cl", "note": "(single isomer, unassigned) [Compound No. 5]", "values": [{"measurement": "solubility at 30 min", "setting": "[1]; [6]", "value": 0.68, "unit": "mg/mL"}, {"measurement": "solubility at 30 min", "setting": "[1]; [7]", "value": 0.359, "unit": "mg/mL"}, {"measurement": "IC50", "setting": "[2]", "value": 0.0217, "unit": "µM"}, {"measurement": "bioavailability", "setting": "[3]", "value": 100, "unit": "%"}, {"measurement": "MIC", "setting": "[4]", "value": 0.125, "unit": "mg/L"}, {"measurement": "survival on day 35", "setting": "[5]", "value": 100, "unit": "%"}, {"measurement": "MIC", "setting": "S. aureus ATCC 29213", "value": 0.5, "unit": "mg/L"}]}, {"smiles": "CCc1[nH]c(C(=O)N[C@@H]2CCN(c3nnc(C(C)(C)O)s3)C[C@@H]2OC)nc1Cl", "note": "[Compound No. 2, 4-Chloro-5-ethyl-N-{(3S,4R)-1-[5-(2-hydroxypropan-2-yl)-1,3,4-thiadiazol-2-yl]-3-methoxypiperidin-4-yl}-1H-imidazole-2-carboxamide]", "values": [{"measurement": "solubility at 30 min", "setting": "[1]; [6]", "value": 0.706, "unit": "mg/mL"}, {"measurement": "solubility at 30 min", "setting": "[1]; [7]", "value": 0.256, "unit": "mg/mL"}, {"measurement": "IC50", "setting": "[2]", "value": 0.0466, "unit": "µM"}, {"measurement": "bioavailability", "setting": "[3]", "value": 85, "unit": "%"}, {"measurement": "MIC", "setting": "[4]", "value": 0.06, "unit": "mg/L"}, {"measurement": "survival on day 35", "setting": "[5]", "value": 100, "unit": "%"}, {"measurement": "MIC", "setting": "S. aureus ATCC 29213", "value": 0.25, "unit": "mg/L"}]}]}
